Measurements as given in PubChem BioAssay (NCI).
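Cells were grown in 96-well plates and exposed to each compound for 48 hours at five concentrations; endpoints were interpolated linearly between bracketing concentrations, or set to the highest concentration if not reached. The concentration for 50% growth inhibition is given as GI50. TGI: total growth inhibition.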

Legend:
Assay in all cases: NCI tumour cell line growth inhibition, 48 h
HCT-116 colon = tested on: HCT-116 colon
SNB-75 CNS = tested on: SNB-75 CNS
UACC-257 melanoma = tested on: UACC-257 melanoma
EKVX NSCLC = tested on: EKVX NSCLC
OVCAR-8 ovarian = tested on: OVCAR-8 ovarian
SK-MEL-2 melanoma = tested on: SK-MEL-2 melanoma
HOP-92 NSCLC = tested on: HOP-92 NSCLC
COLO 205 colon = tested on: COLO 205 colon

For `CC(=O)OC(C)(C)/C=C/C(=O)[C@](C)(O)[C@H]1[C@H](O)C[C@@]2(C)[C@@H]3CC=C4[C@@H](C[C@H](O)C(=O)C4(C)C)[C@]3(C)C(=O)C[C@]12C`, the TGI (HCT-116 colon) was 1.22 µM, the TGI (SNB-75 CNS) was < 0.01 µM and the TGI (UACC-257 melanoma) was 2.42 µM. The TGI (EKVX NSCLC) was < 0.0221 µM, the TGI (OVCAR-8 ovarian) was 5.8 µM and the TGI (SK-MEL-2 melanoma) was < 0.01 µM.

For `S=C(Nc1ccc(Cl)cc1)Nc1ccc(-c2nc3ccccc3[nH]2)cc1`, the GI50 (HCT-116 colon) was 12.3 µM, the TGI (HCT-116 colon) was 24.7 µM and the GI50 (HOP-92 NSCLC) was 1.53 µM. The TGI (HOP-92 NSCLC) was 12.3 µM, the GI50 (SNB-75 CNS) was 15.7 µM and the TGI (SNB-75 CNS) was > 55 µM. The GI50 (UACC-257 melanoma) was 14.7 µM, the TGI (UACC-257 melanoma) was > 52 µM and the GI50 (EKVX NSCLC) was 13.3 µM. The TGI (EKVX NSCLC) was 52.5 µM, the GI50 (OVCAR-8 ovarian) was 14.3 µM and the TGI (OVCAR-8 ovarian) was > 59.7 µM. For the same compound, the GI50 (COLO 205 colon) was 2.65 µM and the TGI (COLO 205 colon) was > 35.8 µM.

With `Nc1ccccc1C#C/C=C\C#Cc1ccc(Cl)cc1Cl` the GI50 (HCT-116 colon) was 12 µM, the TGI (HCT-116 colon) was 24.9 µM and the GI50 (HOP-92 NSCLC) was 17 µM. For the same compound, the TGI (HOP-92 NSCLC) was 48.1 µM, the GI50 (UACC-257 melanoma) was 18.3 µM and the TGI (UACC-257 melanoma) was 40.9 µM. The GI50 (EKVX NSCLC) was 18.8 µM, the TGI (EKVX NSCLC) was 47.9 µM and the GI50 (OVCAR-8 ovarian) was 19.1 µM. The TGI (OVCAR-8 ovarian) was 41.5 µM, the GI50 (SK-MEL-2 melanoma) was 25 µM and the TGI (SK-MEL-2 melanoma) was 70.1 µM. For the same compound, the GI50 (COLO 205 colon) was 23.8 µM and the TGI (COLO 205 colon) was > 100 µM.

With `CCSc1nc(N=Cc2cccs2)c2cn[nH]c2n1` the GI50 (HCT-116 colon) was 6.49 µM, the TGI (HCT-116 colon) was > 100 µM and the GI50 (UACC-257 melanoma) was 61 µM. For the same compound, the TGI (UACC-257 melanoma) was > 100 µM, the GI50 (EKVX NSCLC) was 67.8 µM and the TGI (EKVX NSCLC) was > 100 µM. For the same compound, the GI50 (OVCAR-8 ovarian) was 55.9 µM, the TGI (OVCAR-8 ovarian) was > 100 µM and the GI50 (SK-MEL-2 melanoma) was 26.2 µM. The TGI (SK-MEL-2 melanoma) was > 100 µM, the GI50 (COLO 205 colon) was 10.9 µM and the TGI (COLO 205 colon) was 24.9 µM.

In the case of `COC(=O)C(Nc1ccc(OC)cc1)c1ccccc1` (centres undefined), the TGI (HCT-116 colon) is reported as > 100 µM, the TGI (UACC-257 melanoma) is reported as > 100 µM and the TGI (EKVX NSCLC) is reported as > 100 µM. For the same compound, the TGI (OVCAR-8 ovarian) was > 100 µM, the TGI (SK-MEL-2 melanoma) was > 100 µM and the TGI (COLO 205 colon) was > 100 µM.

With `COc1ccc(-c2nc(-c3ccccc3)c(-c3ccccc3)n2C2CC2)cc1OC1CCCC1` the GI50 (HCT-116 colon) was 14.1 µM, the TGI (HCT-116 colon) was > 165 µM and the GI50 (SNB-75 CNS) was 48.4 µM. For the same compound, the TGI (SNB-75 CNS) was > 165 µM, the GI50 (UACC-257 melanoma) was > 165 µM and the TGI (UACC-257 melanoma) was > 165 µM. For the same compound, the GI50 (OVCAR-8 ovarian) was 66.6 µM, the TGI (OVCAR-8 ovarian) was > 165 µM and the GI50 (SK-MEL-2 melanoma) was 105 µM. For the same compound, the TGI (SK-MEL-2 melanoma) was > 165 µM, the GI50 (COLO 205 colon) was 51.3 µM and the TGI (COLO 205 colon) was > 165 µM.

For `S=C(N/N=C/c1ccccn1)Nc1ccccn1`, the GI50 (HCT-116 colon) was 0.371 µM, the TGI (HCT-116 colon) was > 100 µM and the GI50 (HOP-92 NSCLC) was 0.478 µM. It also gave a TGI (HOP-92 NSCLC) of 6.23 µM, a GI50 (UACC-257 melanoma) of 0.903 µM and a TGI (UACC-257 melanoma) of 5.85 µM. The GI50 (OVCAR-8 ovarian) was 0.671 µM, the TGI (OVCAR-8 ovarian) was > 100 µM and the GI50 (SK-MEL-2 melanoma) was 2.35 µM. The TGI (SK-MEL-2 melanoma) was 9.74 µM, the GI50 (COLO 205 colon) was 0.471 µM and the TGI (COLO 205 colon) was > 100 µM.

With `CC1(C)N=C(N)N=C(N)N1c1cc(Cl)ccc1Cl` the GI50 (HCT-116 colon) was 93.8 µM, the TGI (HCT-116 colon) was > 100 µM and the GI50 (SNB-75 CNS) was > 100 µM. For the same compound, the TGI (SNB-75 CNS) was > 100 µM, the GI50 (UACC-257 melanoma) was > 100 µM and the TGI (UACC-257 melanoma) was > 100 µM. The GI50 (EKVX NSCLC) was > 100 µM, the TGI (EKVX NSCLC) was > 100 µM and the GI50 (OVCAR-8 ovarian) was > 100 µM. For the same compound, the TGI (OVCAR-8 ovarian) was > 100 µM, the GI50 (SK-MEL-2 melanoma) was > 100 µM and the TGI (SK-MEL-2 melanoma) was > 100 µM. For the same compound, the GI50 (COLO 205 colon) was > 100 µM and the TGI (COLO 205 colon) was > 100 µM.

For `O=[N+]([O-])/C=C/c1c[nH]c2ccccc12`, the GI50 (HCT-116 colon) was 3.32 µM, the TGI (HCT-116 colon) was 11.3 µM and the GI50 (SNB-75 CNS) was 4.45 µM. It also gave a TGI (SNB-75 CNS) of 16.3 µM, a GI50 (UACC-257 melanoma) of 16.5 µM and a TGI (UACC-257 melanoma) of 30.6 µM. The GI50 (EKVX NSCLC) was 19.3 µM, the TGI (EKVX NSCLC) was 45.1 µM and the GI50 (OVCAR-8 ovarian) was 21.6 µM. It also gave a TGI (OVCAR-8 ovarian) of 49.4 µM, a GI50 (SK-MEL-2 melanoma) of 18.6 µM and a TGI (SK-MEL-2 melanoma) of 37.8 µM. For the same compound, the GI50 (COLO 205 colon) was 15.6 µM and the TGI (COLO 205 colon) was 30.6 µM.

`O=C(NOCC1CC1)c1ccc(F)c(F)c1Nc1ccc(I)cc1Cl` was tested, and the GI50 (HCT-116 colon) was 0.641 µM, the TGI (HCT-116 colon) was 9.06 µM and the GI50 (HOP-92 NSCLC) was 0.0927 µM. For the same compound, the TGI (HOP-92 NSCLC) was 1.18 µM, the GI50 (SNB-75 CNS) was 2.15 µM and the TGI (SNB-75 CNS) was > 45.2 µM. The GI50 (UACC-257 melanoma) was 0.0549 µM, the TGI (UACC-257 melanoma) was 0.517 µM and the GI50 (OVCAR-8 ovarian) was 2.32 µM. The TGI (OVCAR-8 ovarian) was 20.6 µM, the GI50 (SK-MEL-2 melanoma) was 0.166 µM and the TGI (SK-MEL-2 melanoma) was 2.05 µM. It also gave a GI50 (COLO 205 colon) of 0.0704 µM and a TGI (COLO 205 colon) of 3.54 µM.

`COC(=O)Nc1nc2ccccc2c(=O)[nH]1` was tested, and the TGI (HCT-116 colon) was > 100 µM, the TGI (SNB-75 CNS) was > 100 µM and the TGI (UACC-257 melanoma) was > 100 µM. The TGI (EKVX NSCLC) was > 100 µM, the TGI (OVCAR-8 ovarian) was > 100 µM and the TGI (SK-MEL-2 melanoma) was > 100 µM. For the same compound, the TGI (COLO 205 colon) was > 100 µM.

With `Cn1c(=O)c2[nH]c(CS(=O)(=O)Cc3nc4c([nH]3)c(=O)n(C)c(=O)n4C)nc2n(C)c1=O` the TGI (HCT-116 colon) was > 100 µM, the TGI (SNB-75 CNS) was > 100 µM and the TGI (UACC-257 melanoma) was > 100 µM. For the same compound, the TGI (EKVX NSCLC) was > 100 µM, the TGI (OVCAR-8 ovarian) was > 100 µM and the TGI (SK-MEL-2 melanoma) was > 100 µM. For the same compound, the TGI (COLO 205 colon) was > 100 µM.

`COc1cc(/C=C/C(=O)c2ccc(Cl)cc2)ccc1OS(=O)(=O)c1ccc(C)cc1` gave a GI50 (HCT-116 colon) of 1.76 µM, a TGI (HCT-116 colon) of 3.71 µM and a GI50 (SNB-75 CNS) of 31.6 µM. For the same compound, the TGI (SNB-75 CNS) was > 100 µM, the GI50 (UACC-257 melanoma) was 14 µM and the TGI (UACC-257 melanoma) was 36.3 µM. For the same compound, the GI50 (OVCAR-8 ovarian) was 3.23 µM, the TGI (OVCAR-8 ovarian) was 16 µM and the GI50 (SK-MEL-2 melanoma) was 12.3 µM. It also gave a TGI (SK-MEL-2 melanoma) of 28.8 µM, a GI50 (COLO 205 colon) of 12.3 µM and a TGI (COLO 205 colon) of 39.7 µM.

With `CC[N+](CC)(CC)CCCn1c2c(c3ccccc3c1=O)C(=O)c1ccccc1-2` the GI50 (HCT-116 colon) was 1.95 µM, the TGI (HCT-116 colon) was 9.27 µM and the GI50 (HOP-92 NSCLC) was 17.9 µM. The TGI (HOP-92 NSCLC) was > 100 µM, the GI50 (SNB-75 CNS) was 80 µM and the TGI (SNB-75 CNS) was > 100 µM. It also gave a GI50 (UACC-257 melanoma) of 12.3 µM, a TGI (UACC-257 melanoma) of 36.3 µM and a GI50 (OVCAR-8 ovarian) of 3.66 µM. For the same compound, the TGI (OVCAR-8 ovarian) was 22.8 µM, the GI50 (SK-MEL-2 melanoma) was 21.8 µM and the TGI (SK-MEL-2 melanoma) was 53.4 µM. The GI50 (COLO 205 colon) was 23.1 µM and the TGI (COLO 205 colon) was > 100 µM.

`CN(C)c1ccc2c3c(c(=O)oc2c1)CCC3` was tested, and the TGI (HCT-116 colon) was > 100 µM, the TGI (HOP-92 NSCLC) was > 100 µM and the TGI (UACC-257 melanoma) was > 100 µM. For the same compound, the TGI (EKVX NSCLC) was > 100 µM, the TGI (OVCAR-8 ovarian) was > 100 µM and the TGI (SK-MEL-2 melanoma) was > 100 µM. For the same compound, the TGI (COLO 205 colon) was > 100 µM.

`C[C@]12CC[C@@H]3c4ccc(O)cc4CC[C@H]3[C@@H]1CC[C@@H]2NS(=O)(=O)Cc1ccc(Cl)cc1` gave a GI50 (HCT-116 colon) of 1.92 µM, a TGI (HCT-116 colon) of 3.97 µM and a GI50 (HOP-92 NSCLC) of 2.13 µM. The TGI (HOP-92 NSCLC) was 7.24 µM, the GI50 (SNB-75 CNS) was 2.08 µM and the TGI (SNB-75 CNS) was 9.75 µM. It also gave a GI50 (UACC-257 melanoma) of 2.59 µM, a TGI (UACC-257 melanoma) of 8.08 µM and a GI50 (OVCAR-8 ovarian) of 2.52 µM. The TGI (OVCAR-8 ovarian) was 7.58 µM, the GI50 (SK-MEL-2 melanoma) was 2.54 µM and the TGI (SK-MEL-2 melanoma) was 6.35 µM. The GI50 (COLO 205 colon) was 1.81 µM and the TGI (COLO 205 colon) was 3.27 µM.
